Experimental data reported in patent US20130172246A1, “INSULIN GLARGINE VERSUS METFORMIN FOR THE FIRST-LINE TREATMENT OF EARLY TYPE-2 DIABETES” (priority 2011, published 2013).
Read-outs that look alike come from different tables or passages of the source.

Legend:
[1] = tested on: type 2 diabetes patients; test: Laboratory analyses in the clinical trial: HbA1c, plasma glucose, lipids, hsCRP; format: in vivo, human; settings: for HbA1c level at end of study: after 36 weeks of treatment, GLA vs. MET n.s.; for HbA1c level at start of study: baseline value of the 'x to y' pair; for Triglycerides - change / HDL - change / HbA1c - change / LDL - change / Plasma glucose - change, 2 h after test meal / Plasma glucose - change, Fasting / Total chol. - change / hsCRP - change / Triglycerides - visit 8 / HDL - visit 8 / HbA1c - visit 8 / LDL - visit 8 / Plasma glucose - visit 8, 2 h after test meal / Plasma glucose - visit 8, Fasting / Total chol. - visit 8 / hsCRP - 8th visit: per protocol, mean (SD); for Triglycerides - change / HDL - change / HbA1c - change / LDL - change / Plasma glucose - change, 2 h after test meal / Plasma glucose - change, Fasting / Total chol. - change / hsCRP - change: change visit 1 to visit 8; for HDL - change / HbA1c - change / LDL - change / Plasma glucose - change, 2 h after test meal / Plasma glucose - change, Fasting / Total chol. - change / hsCRP - change / HDL - visit 8 / HbA1c - visit 8 / LDL - visit 8 / Plasma glucose - visit 8, 2 h after test meal / Plasma glucose - visit 8, Fasting / Total chol. - visit 8 / hsCRP - 8th visit: unit as in Table 4; for Triglycerides - visit 8 / HDL - visit 8 / HbA1c - visit 8 / LDL - visit 8 / Plasma glucose - visit 8, 2 h after test meal / Plasma glucose - visit 8, Fasting / Total chol. - visit 8 / hsCRP - 8th visit: week 36; for reduction in the FPG level (Δ): start to end of study (36 weeks), GLA vs. MET p<0.001
Procedure: Test meal: On the morning of the 2nd day of the CGM, there is a standardized test meal in the trial center. This test meal (TM) consists of 95 g of whole-wheat bread, 20 g of margarine, 25 g of fruit preserves, 25 g of cheese, 200 ml of orange juice, 200 ml of milk mix with banana, strawberry or cocoa with a total of 560 Kcal. Blood is taken from the patient prior to the TM (after night-time fasting period of at least 8 hours). […] From the 1st bite, the time is measured, and after 2 h have elapsed, a 2nd blood collection is performed. During the TM and during the two hours thereafter, the patient should move as little as possible so as not to falsify the monitoring.
Fasting blood is collected between 7 and 9 o'clock in the morning when the patient turns up at the center.
Laboratory analyses: The blood samples for the clinical laboratory tests are analyzed in the central laboratory and the local laboratories according to standardized conditions. The central laboratory and the local laboratories provide on request corresponding documentation (e.g., normal value tables, round-robin test certificates in accordance with RiLiBÄK (Guidelines of the German Medical Association)) for the trial master file. The central laboratory is responsible for the collection, transport and analysis of the blood samples and instructs the trial center on sample management.
The patients were treated with either metformin (MET, 1000 mg b.i.d. (n=3)) or insulin glargine (GLA) q.d. just before bedtime (n=3). […] At the start and end of the study, the HbA1c level and the plasma glucose, proinsulin and C-peptide concentrations were determined. […] All the patients received a standardized test meal on the second day of the continuous glucose monitoring for comparison of the interindividual postprandial (pp) glucose excursions.

[2] = tested on: type 2 diabetes patients; settings: cited from earlier work
[3] = Body weight, BMI, abdominal and hip measurement in the clinical trial
Procedure: (§1) • Checking the inclusion/exclusion criteria • Physical examination • Measuring body weight, waist/hip measurement, blood pressure, pulse • Recording the change in concomitant medication and concomitant conditions • Recording AEs and SAEs • Applying the CGMS for up to 72 h, briefing and training the patient • Randomization: • Group A: Titrating insulin glargine to target level of fasting plasma glucose (5.6 mmol/l (100 mg/dl)) • Briefing and training the patients in insulin use (Depending on the organization, training measures can be implemented during the overall visit 1 a-c.) • Group B: 500 mg of metformin tid • Pregnancy test, if applicable. • Laser Doppler measurement; only at center 01 and 02
(§2) • Recording the change in concomitant medication • Recording AEs and SAEs • Physical examination • Measuring body weight, waist/hip measurement, blood pressure, pulse • Applying the CGMS for up to 72 h, briefing and training the patient • Drug accountability/compliance (registering the used-up medication) • Laser Doppler measurement, only at center 01 and 02

[4] = tested on: type 2 diabetes patients; settings: ORIGIN-CGMS substudy, cited from earlier work
[5] = tested on: type 2 diabetes patients; settings: background statement; cited from earlier work
[6] = human, in vivo
Procedure: as §1, §2

[7] = tested on: type 2 diabetes patients; test: Hypoglycemic events and low interstitial glucose periods during CGM; format: in vivo, human; settings: early treatment with GLA vs. MET
Procedure: Below is a list of the various target parameters: • Protection of the β-cells by early insulin therapy • C-Peptide (fasting and 2 h pp after TM) • Proinsulin (fasting and 2 h pp after TM) • Glycemic variability: • Glycemic load • Standard deviation (SD), • MAGE • HbA1c • Anti-inflammatory action of insulin: • Biomarkers of subclinical inflammation (fasting and 2 h pp) • hsCRP, • PAI-1, • Leukocyte count • Back-up samples for determining • MMP9 • ADMA • Adiponectin • Effect on endothelial function • Endothelial function at ball of thumb using laser Doppler (O2C) • Effect on renal function • Microalbuminuria (albumin/creatinine ratio) • Serum creatinine • Risk of hypoglycemia • Hypoglycemic intervals (time<3 mmol glucose) during CGM over 48 hours (day 2+3 after TM) • Free fatty acids […]

[8] = tested on: type 2 diabetes patients; test: Pilot study with insulin glargine with a CGMS; format: in vivo, human; settings: compared to metformin
[9] = per protocol, change visit 1 to visit 8, mean (SD), unit as in Table 4

| Compound | HbA1c level at end of study [1] [%] | HbA1c level at start of study [1] [%] | Triglycerides - change [1] | HDL - change [1] | HbA1c - change [1] | LDL - change [1] | Plasma glucose - change, 2 h after test meal [1] | Plasma glucose - change, Fasting [1] | Total chol. - change [1] | hsCRP - change [1] | Triglycerides - visit 8 [1] | HDL - visit 8 [1] | HbA1c - visit 8 [1] | LDL - visit 8 [1] | Plasma glucose - visit 8, 2 h after test meal [1] | Plasma glucose - visit 8, Fasting [1] | Total chol. - visit 8 [1] | hsCRP - 8th visit [1] | reduction in the FPG level (Δ) [1] [mmol/L] | other results |
| --- | --- | --- | --- | --- | --- | --- | --- | --- | --- | --- | --- | --- | --- | --- | --- | --- | --- | --- | --- | --- |
| CN(C)C(=N)N=C(N)N [Metformin] | 6.3 | 6.9 | −0.2 (1.1) mmol/l | 0.1 (0.2) mmol/l | −0.6 (0.4) % | −0.03 (0.6) mmol/l | −1.6 (2.5) mmol/l | −1.4 (1.5) mmol/l | −0.02 (0.7) mmol/l | −0.2 (2.2) mg/l | 1.9 (0.8) mmol/l | 1.3 (0.4) mmol/l | 6.3 (0.3) % | 3.1 (0.9) mmol/l | 8.4 (2.1) mmol/l | 7.2 (1.0) mmol/l | 5.3 (1.0) mmol/l | 3.1 (5.2) mg/l | 1.4 ± 1.5 | patients additionally receiving sulfonylureas or other combinations with oral antidiabetics ([2]; after one to two years, UK-PDS and DIG study): over 50%; patients with stomach complaints, disturbances in appetite and, very rarely, allergies ([2]; background statement): approximately 10%; cases in which not tolerated ([2]; reference [17]): approximately 15%; Abdomen - visit 8 ([3]; abdominal circumference, per protocol, week 36, mean (SD), unit as in Table 4): 100.5 (13.7) cm; Hip - 8th visit ([3]; hip measurement, per protocol, week 36, mean (SD), unit as in Table 4): 108.0 (11.6) cm; weight loss ([3]; over the study, vs. GLA p<0.001): 3.0 ± 4.3 kg; Abdomen - change [3, 9]: −2.0 (4.1) cm; BMI - change [3, 9]: 1.0 (1.4) kg/m^2; Hip - change [3, 9]: −1.6 (4.1) cm; BMI - visit 8 ([3]; per protocol, week 36, mean (SD), unit as in Table 4): 29.3 (5.3) kg/m^2 |
| Insulin glargine | 6.4 | 7.2 | −0.2 (1.8) mmol/l | 0.1 (0.2) mmol/l | −0.8 (0.7) % | −0.1 (0.7) mmol/l | −2.8 (3.2) mmol/l | −3.1 (2.5) mmol/l | −0.04 (0.8) mmol/l | 0.1 (3.0) mg/l | 2.2 (2.0) mmol/l | 1.3 (0.3) mmol/l | 6.4 (0.4) % | 3.1 (0.8) mmol/l | 8.3 (2.5) mmol/l | 6.1 (1.1) mmol/l | 5.2 (1.0) mmol/l | 3.1 (2.9) mg/l | 3.1 ± 2.5 | difference in the AUC TM for BG vs. standard treatment (predominantly metformin therapy) [4]: 15%; difference in the AUC TM for BG vs. standard treatment (predominantly metformin therapy) ([4]; standard deviation 179): 127 mmol*120 min; control of the fasting glucose level and of the overall glycemic situation ([1]; early treatment, compared to standard treatment with MET): more effective control; serious adverse reactions [5]: without serious adverse reactions such as severe hypoglycemias; stable HbA1c level achieved [5]: around 6%; Abdomen - change [6]: 1.1 (3.7) cm; Abdomen - visit 8 [6]: 104.3 (10.7) cm; BMI - change [6]: −0.5 (1.3) kg/m^2; BMI - visit 8 [6]: 29.9 (4.1) kg/m^2; Hip - 8th visit [6]: 108.6 (9.4) cm; Hip - change [6]: 1.6 (4.1) cm; weight gained [6]: 1.5 ± 3.8 kg; number of hypoglycemic events [7]: no rise in the number of hypoglycemic events; control of postprandial hyperglycemia [8]: improved control of postprandial hyperglycemia compared to metformin |
